Laboratory results published in patent US11370798B2 (Vertex Pharmaceuticals Incorporated, priority 2012, dated 2022).

Each compound was assayed on HCT116 colorectal cancer cells (assay: Cisplatin sensitization assay (96 h cell viability MTS)). Conditions: compound and Cisplatin added simultaneously, Cisplatin sensitization value.
Type: cell-based
Procedure, shortened: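 Compound and cisplatin added together as a full matrix of 2-fold serial dilutions from a top final concentration of 10 μM; cells incubated 96 h at 37° C, 5% CO2. Viability then read by MTS after 1 h further incubation; sensitization value reported in μM bins.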
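Note: Test-compound concentration that lowers the Cisplatin IC50 by a set fold.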

| SMILES | Cisplatin Sensitization Assay |
| --- | --- |
| Nc1nn2cc(F)cnc2c1C(=O)Nc1cnccc1N1CCC(c2ncon2)CC1 [I-N-241, N-(4-(4-(1,2,4-oxadiazol-3-yl)piperidin-1-yl)pyridin-3-yl)-2-amino-6-fluoropyrazolo[1,5-a]pyrimidine-3-carboxamide] | +++ (Cisplatin sensitization value of <0.02 μM) |
| Cc1ncnn1-c1c(F)cncc1NC(=O)c1c(N)nn2cc(F)cnc12 [I-N-242, 2-amino-6-fluoro-N-(5-fluoro-4-(5-methyl-1H-1,2,4-triazol-1-yl)pyridin-3-yl)pyrazolo[1,5-a]pyrimidine-3-carboxamide] | + (Cisplatin sensitization value>0.2 μM but <5 μM) |
| CC1(S(C)(=O)=O)CCN(c2ccncc2NC(=O)c2c(N)nn3cc(F)cnc23)CC1 [I-N-243, 2-amino-6-fluoro-N-(4-(4-methyl-4-(methylsulfonyl)piperidin-1-yl)pyridin-3-yl)pyrazolo[1,5-a]pyrimidine-3-carboxamide] | +++ (Cisplatin sensitization value of <0.02 μM) |
| Nc1nn2cc(F)cnc2c1C(=O)Nc1cnccc1N1CCN2C(=O)CCCC2C1 (stereo not drawn) [I-N-244, 2-amino-6-fluoro-N-(4-(6-oxohexahydro-1H-pyrido[1,2-a]pyrazin-2(6H)-yl)pyridin-3-yl)pyrazolo[1,5-a]pyrimidine-3-carboxamide] | +++ (Cisplatin sensitization value of <0.02 μM) |
| CC(C)N1CCN2CCN(c3ccncc3NC(=O)c3c(N)nn4cc(F)cnc34)CC2C1=O (stereo not drawn) [I-N-245, 2-amino-6-fluoro-N-(4-(8-isopropyl-9-oxohexahydro-1H-pyrazino[1,2-a]pyrazin-2(6H)-yl)pyridin-3-yl)pyrazolo[1,5-a]pyrimidine-3-carboxamide] | ++ (Cisplatin sensitization value>0.02 μM but <0.2 μM) |
| Nc1nn2cc(F)cnc2c1C(=O)Nc1cncc(F)c1N1CCCC1 [I-N-246, 2-amino-6-fluoro-N-(5-fluoro-4-(pyrrolidin-1-yl)pyridin-3-yl)pyrazolo[1,5-a]pyrimidine-3-carboxamide] | ++ (Cisplatin sensitization value>0.02 μM but <0.2 μM) |
| Nc1nn2cc(F)cnc2c1C(=O)Nc1cnccc1N1CCN2[C@@H](CCS2(=O)=O)C1 [I-N-247, (S)-2-amino-N-(4-(1,1-dioxidotetrahydro-2H-isothiazolo[2,3-a]pyrazin-5(3H)-yl)pyridin-3-yl)-6-fluoropyrazolo[1,5-a]pyrimidine-3-carboxamide] | +++ (Cisplatin sensitization value of <0.02 μM) |
| Nc1nn2cc(F)cnc2c1C(=O)Nc1cncc(F)c1N1CCN2C(=O)OC[C@@H]2C1 [I-N-248, (S)-2-amino-6-fluoro-N-(5-fluoro-4-(3-oxotetrahydro-1H-oxazolo[3,4-a]pyrazin-7(3H)-yl)pyridin-3-yl)pyrazolo[1,5-a]pyrimidine-3-carboxamide] | ++ (Cisplatin sensitization value>0.02 μM but <0.2 μM) |
| Nc1nn2cc(F)cnc2c1C(=O)Nc1cnccc1N1CCN(C(=O)C2COC2)CC1 [I-N-249] | +++ (Cisplatin sensitization value of <0.02 μM) |
| Nc1nn2cc(F)cnc2c1C(=O)Nc1cncc(F)c1N1CCS(=O)(=O)CC1 [I-N-250, 2-amino-N-(4-(1,1-dioxidothiomorpholino)-5-fluoropyridin-3-yl)-6-fluoropyrazolo[1,5-a]pyrimidine-3-carboxamide] | ++ (Cisplatin sensitization value>0.02 μM but <0.2 μM) |
| CC(=O)N1CC2(CCN(c3ccncc3NC(=O)c3c(N)nn4cc(F)cnc34)CC2)C1 [I-N-251, N-(4-(2-acetyl-2,7-diazaspiro[3.5]nonan-7-yl)pyridin-3-yl)-2-amino-6-fluoropyrazolo[1,5-a]pyrimidine-3-carboxamide] | +++ (Cisplatin sensitization value of <0.02 μM) |
| CC1(C)CN(c2ccncc2NC(=O)c2c(N)nn3cc(F)cnc23)CCS1(=O)=O [I-N-252, 2-amino-N-(4-(2,2-dimethyl-1,1-dioxidothiomorpholino)pyridin-3-yl)-6-fluoropyrazolo[1,5-a]pyrimidine-3-carboxamide] | +++ (Cisplatin sensitization value of <0.02 μM) |
| Nc1nn2cc(F)cnc2c1C(=O)Nc1cnccc1N1CCCC2(COC2)C1 [I-N-253, N-(4-(2-oxa-6-azaspiro[3.5]nonan-6-yl)pyridin-3-yl)-2-amino-6-fluoropyrazolo[1,5-a]pyrimidine-3-carboxamide] | +++ (Cisplatin sensitization value of <0.02 μM) |
| Nc1nn2cc(F)cnc2c1C(=O)Nc1cnccc1N1CCC2(CCNC2)CC1 [I-N-255, N-(4-(2,8-diazaspiro[4.5]decan-8-yl)pyridin-3-yl)-2-amino-6-fluoropyrazolo[1,5-a]pyrimidine-3-carboxamide] | ++ (Cisplatin sensitization value>0.02 μM but <0.2 μM) |
| Cc1nnc(N2CCN(c3ccncc3NC(=O)c3c(N)nn4cc(F)cnc34)CC2)o1 [I-N-256, 2-amino-6-fluoro-N-(4-(4-(5-methyl-1,3,4-oxadiazol-2-yl)piperazin-1-yl)pyridin-3-yl)pyrazolo[1,5-a]pyrimidine-3-carboxamide] | ++ (Cisplatin sensitization value>0.02 μM but <0.2 μM) |
| CC(=O)N1CCC2(CCN(c3ccncc3NC(=O)c3c(N)nn4cc(F)cnc34)CC2)C1 [I-N-257, N-(4-(2-acetyl-2,8-diazaspiro[4.5]decan-8-yl)pyridin-3-yl)-2-amino-6-fluoropyrazolo[1,5-a]pyrimidine-3-carboxamide] | +++ (Cisplatin sensitization value of <0.02 μM) |
| Nc1nn2cc(F)cnc2c1C(=O)Nc1cnccc1N1CCN2C(=O)CC[C@@H]2C1 [I-N-258, (R)-2-amino-6-fluoro-N-(4-(6-oxohexahydropyrrolo[1,2-a]pyrazin-2(1H)-yl)pyridin-3-yl)pyrazolo[1,5-a]pyrimidine-3-carboxamide] | ++ (Cisplatin sensitization value>0.02 μM but <0.2 μM) |
| Cn1ccc2cncc(NC(=O)c3c(N)nn4cc(F)cnc34)c21 [I-N-259, 2-amino-6-fluoro-N-(1-methyl-1H-pyrrolo[3,2-c]pyridin-7-yl)pyrazolo[1,5-a]pyrimidine-3-carboxamide] | + (Cisplatin sensitization value>0.2 μM but <5 μM) |
| Cc1nonc1N1CCN(c2ccncc2NC(=O)c2c(N)nn3cc(F)cnc23)CC1 [I-N-260, 2-amino-6-fluoro-N-(4-(4-(4-methyl-1,2,5-oxadiazol-3-yl)piperazin-1-yl)pyridin-3-yl)pyrazolo[1,5-a]pyrimidine-3-carboxamide] | +++ (Cisplatin sensitization value of <0.02 μM) |
| COC(=O)N1CCN(c2c(F)cncc2NC(=O)c2c(N)nn3cc(F)cnc23)CC1 [I-N-261, methyl-4-(3-(2-amino-6-fluoropyrazolo[1,5-a]pyrimidine-3-carboxamido)-5-fluoropyridin-4-yl)piperazine-1-carboxylate] | +++ (Cisplatin sensitization value of <0.02 μM) |
| CC(=O)N1CCCC12CCN(c1ccncc1NC(=O)c1c(N)nn3cc(F)cnc13)CC2 [I-N-262, N-(4-(1-acetyl-1,8-diazaspiro[4.5]decan-8-yl)pyridin-3-yl)-2-amino-6-fluoropyrazolo[1,5-a]pyrimidine-3-carboxamide] | +++ (Cisplatin sensitization value of <0.02 μM) |
| Cc1nncn1-c1ccncc1NC(=O)c1c(N)nn2cc(F)cnc12 [I-N-263, 2-amino-6-fluoro-N-(4-(3-methyl-4H-1,2,4-triazol-4-yl)pyridin-3-yl)pyrazolo[1,5-a]pyrimidine-3-carboxamide] | + (Cisplatin sensitization value>0.2 μM but <5 μM) |
| Nc1nn2cc(F)cnc2c1C(=O)Nc1cnccc1N1CCCCCC1 [I-N-264, 2-amino-N-(4-(azepan-1-yl)pyridin-3-yl)-6-fluoropyrazolo[1,5-a]pyrimidine-3-carboxamide] | + (Cisplatin sensitization value>0.2 μM but <5 μM) |
| Cc1nnc(C2CCN(c3ccncc3NC(=O)c3c(N)nn4cc(F)cnc34)CC2)o1 [I-N-265, 2-amino-6-fluoro-N-(4-(4-(5-methyl-1,3,4-oxadiazol-2-yl)piperidin-1-yl)pyridin-3-yl)pyrazolo[1,5-a]pyrimidine-3-carboxamide] | ++ (Cisplatin sensitization value>0.02 μM but <0.2 μM) |
| COC1CCN(c2ccncc2NC(=O)c2c(N)nn3cc(F)cnc23)CC1 [I-N-266, 2-amino-6-fluoro-N-(4-(4-methoxypiperidin-1-yl)pyridin-3-yl)pyrazolo[1,5-a]pyrimidine-3-carboxamide] | +++ (Cisplatin sensitization value of <0.02 μM) |
| CN(C)CC1CCN(c2ccncc2NC(=O)c2c(N)nn3cc(F)cnc23)CC1 [I-N-267, 2-amino-N-(4-(4-((dimethylamino)methyl)piperidin-1-yl)pyridin-3-yl)-6-fluoropyrazolo[1,5-a]pyrimidine-3-carboxamide] | +++ (Cisplatin sensitization value of <0.02 μM) |
| Nc1nn2cc(F)cnc2c1C(=O)Nc1cnccc1N1CCC(c2nnco2)CC1 [I-N-268, N-(4-(4-(1,3,4-oxadiazol-2-yl)piperidin-1-yl)pyridin-3-yl)-2-amino-6-fluoropyrazolo[1,5-a]pyrimidine-3-carboxamide] | +++ (Cisplatin sensitization value of <0.02 μM) |
| Cc1ncn(-c2ccncc2NC(=O)c2c(N)nn3cc(F)cnc23)c1C [I-N-269, 2-amino-N-(4-(4,5-dimethyl-1H-imidazol-1-yl)pyridin-3-yl)-6-fluoropyrazolo[1,5-a]pyrimidine-3-carboxamide] | ++ (Cisplatin sensitization value>0.02 μM but <0.2 μM) |
| Nc1nn2cc(F)cnc2c1C(=O)Nc1cncc(F)c1N1CCCCC1 [I-N-270, 2-amino-6-fluoro-N-(5-fluoro-4-(piperidin-1-yl)pyridin-3-yl)pyrazolo[1,5-a]pyrimidine-3-carboxamide] | +++ (Cisplatin sensitization value of <0.02 μM) |
| Nc1nn2cc(F)cnc2c1C(=O)Nc1cnccc1N1CCC(S(=O)(=O)N2CCC2)CC1 [I-N-271, 2-amino-N-(4-(4-(azetidin-1-ylsulfonyl)piperidin-1-yl)pyridin-3-yl)-6-fluoropyrazolo[1,5-a]pyrimidine-3-carboxamide] | +++ (Cisplatin sensitization value of <0.02 μM) |
